Measured values taken from EP0409414B1, “Diaryl ether cycloalkanes” (IMPERIAL CHEMICAL INDUSTRIES PLC, priority 1989, dated 1991).

Biological target: T1, 5-LO (Homo sapiens, UniProt P09917)
T1 construct: incubating a test compound with heparinised human blood, prior to challenge with the calcium ionophore A23187; endogenous in cells; host or cells: heparinised human whole blood (leukocytes)
T1 sequence (P09917 1-674): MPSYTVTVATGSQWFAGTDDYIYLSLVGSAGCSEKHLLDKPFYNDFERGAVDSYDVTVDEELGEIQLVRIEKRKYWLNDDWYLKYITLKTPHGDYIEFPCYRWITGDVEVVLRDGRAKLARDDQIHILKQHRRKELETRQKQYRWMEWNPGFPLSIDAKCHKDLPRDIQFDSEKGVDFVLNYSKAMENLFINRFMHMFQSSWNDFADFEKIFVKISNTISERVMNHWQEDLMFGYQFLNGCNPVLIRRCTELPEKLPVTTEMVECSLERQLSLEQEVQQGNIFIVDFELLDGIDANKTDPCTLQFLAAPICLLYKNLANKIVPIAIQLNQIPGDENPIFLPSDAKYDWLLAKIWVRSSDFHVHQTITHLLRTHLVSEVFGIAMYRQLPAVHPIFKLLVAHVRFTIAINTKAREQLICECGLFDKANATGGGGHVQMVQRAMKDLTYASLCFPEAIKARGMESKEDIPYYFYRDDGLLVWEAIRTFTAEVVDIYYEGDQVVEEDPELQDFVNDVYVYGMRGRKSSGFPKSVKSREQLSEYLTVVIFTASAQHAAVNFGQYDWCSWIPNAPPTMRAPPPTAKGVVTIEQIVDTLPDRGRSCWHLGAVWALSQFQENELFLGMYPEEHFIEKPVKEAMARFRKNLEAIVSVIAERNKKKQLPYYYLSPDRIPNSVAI
Experiment: heparinised human blood challenged with calcium ionophore A23187, radioimmunoassay of LTB4 (test b)
Assay type: cell-based
Conditions: individual compounds, read-out: IC50 against LTB4
Method: As stated previously, the compounds of the formula I are inhibitors of the enzyme 5-LO. […] This test provides a measure of the intrinsic inhibitory properties against soluble 5-LO in an extracellular environment. • b) An in vitro assay system involving incubating a test compound with heparinised human blood, prior to challenge with the calcium ionophore A23187 and then indirectly measuring the inhibitory effects on 5-LO by assaying the amount of LTB4 using the specific radioimmunoassay described by Carey and Forder (F. Carey and R.A. Forder, Brit. […] The effects of a test compound on the enzyme cyclooxygenase (which is involved in the alternative metabolic pathway for arachidonic acid and gives rise to prostaglandins, thromboxanes and related metabolites) may be measured at the same time using the specific radioimmunoassay for thromboxane B2(TxB2) described by Carey and Forder (see above). […] It permits the selectivity of the inhibitory effect on 5-LO or cyclooxygenase to be assessed. • c) An ex vivo assay system, which is a variation of test b) above, involving administration of a test compound (usually orally as the suspension produced when a solution of the test compound in dimethylsulphoxide is added to carboxymethylcellulose), blood collection, heparinisation, challenge with A23187 and radioimmunoassay of LTB4 and TxB2. […]

Compound | IC50 [µM]
CO[C@H]1CCC[C@@]1(OC)c1cc(F)cc(Sc2ccc3ccccc3c2)c1 (racemic) [Example 1, (1RS,2SR)-1-[5-fluoro-3-(naphth-2-ylthio)phenyl]-1,2-dimethoxycyclopentane] | ~0.2
C=CCO[C@@]1(c2cc(F)cc(Sc3ccc4ccccc4c3)c2)CCC[C@@H]1OC (racemic) [Example 2, (1RS,2SR)-1-allyloxy-1-[5-fluoro-3-(naphth-2-ylthio)phenyl]-2-methoxycyclopentane] | ~0.2
